In patent US5036070A, “Polycyclic phenalkyl amines as psychotropic agents” (American Home Products Corporation, priority 1990, dated 1991):

Key:
[1] = biological target: T1, 5-HT1A serotonin receptor (Rattus norvegicus, UniProt P19327); experiment: Serotonin 5-HT1A receptor binding (displacement of [3H]-8-OHDPAT); set-up: from tissue; conditions: [3H]-8-OHDPAT displacement
T1 sequence (P19327 1-422): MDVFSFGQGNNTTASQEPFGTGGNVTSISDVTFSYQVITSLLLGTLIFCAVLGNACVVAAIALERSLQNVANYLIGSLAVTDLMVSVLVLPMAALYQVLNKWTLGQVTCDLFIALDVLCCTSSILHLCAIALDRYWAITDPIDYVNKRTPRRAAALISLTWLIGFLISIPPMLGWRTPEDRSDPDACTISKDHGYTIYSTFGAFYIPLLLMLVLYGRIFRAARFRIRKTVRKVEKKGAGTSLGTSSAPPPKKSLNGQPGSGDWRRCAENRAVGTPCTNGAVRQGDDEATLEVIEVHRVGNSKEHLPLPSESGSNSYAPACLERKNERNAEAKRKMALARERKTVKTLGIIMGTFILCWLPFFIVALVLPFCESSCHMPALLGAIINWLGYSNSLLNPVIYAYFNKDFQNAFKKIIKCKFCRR
Source text: High affinity for the serotonin 5-HT1A receptor was established by testing the claimed compounds ability to displace [^3 H]-8-OHDPAT (dipropylaminotetralin) from the 5-HT1A serotonin receptor following the procedure of Hall et al., J. Neurochem. 44, 1685 (1985). […] The anxiolytic activity of buspirone is believed to be, at least partially, due to its 5-HT1A receptor affinity (Vander Maclen et al., Eur. J. Pharmacol. 1986, 129 (1-2), 133-130.

dopamine D-2 receptor = biological target: T2, dopamine D-2 receptor (Rattus norvegicus, UniProt P61169); experiment: Dopamine D-2 receptor binding ([3H]-spiroperidol, homogenized limbic brain tissue)
T2 construct: from tissue; host or cells: homogenized limbic brain tissue
Protocol: High affinity for the dopamine D-2 receptor was established by the standard experimental test procedure of Fields et al., Brain Res., 136, 578 (1977) and Yamamura et al., eds. Neutrotransmitter Receptor Binding, Raven Press, N.Y. (1978) wherein homogenized limbic brain tissue is incubated with ^3 H-spiroperidol and various concentrations of test compound, filtered and washed and shaken with Hydrofluor scintillation cocktail (National Diagnostics) and counted in a Packard 460 CD scintillation counter.

[2] = biological target: T1, 5-HT1A serotonin receptor; conditions: standard for anxiolytic activity; cited from earlier work

T2 sequence (P61169 whole entry): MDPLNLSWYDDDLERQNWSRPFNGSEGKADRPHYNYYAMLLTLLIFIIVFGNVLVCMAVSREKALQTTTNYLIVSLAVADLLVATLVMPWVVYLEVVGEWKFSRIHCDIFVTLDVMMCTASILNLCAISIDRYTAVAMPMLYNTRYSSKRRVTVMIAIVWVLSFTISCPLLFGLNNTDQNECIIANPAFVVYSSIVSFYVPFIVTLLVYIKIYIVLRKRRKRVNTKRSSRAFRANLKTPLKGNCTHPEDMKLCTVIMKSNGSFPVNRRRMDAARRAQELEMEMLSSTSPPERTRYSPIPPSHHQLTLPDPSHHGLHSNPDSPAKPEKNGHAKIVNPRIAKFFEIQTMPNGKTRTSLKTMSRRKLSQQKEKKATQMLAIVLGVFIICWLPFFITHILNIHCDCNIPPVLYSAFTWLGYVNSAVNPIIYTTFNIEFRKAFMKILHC

Row | inhibition at 1 µM [1] [%] | inhibition at 1 µM (dopamine D-2 receptor) [%] | SMILES | affinity for the 5-HT1A serotonin receptor subtype (in words) [2]
1 | 92 | 97 | c1ccc2c(c1)OCC(CNCCCCOc1ccc3c(c1)CCC3)O2 (stereo not drawn) [Example 4, N-[4-[(2,3-Dihydro-1H-indan-5-yl)oxy]butyl]-2,3-dihydro-1,4-benzodioxan-2-methanamine] | 
2 | 48 | 82 | Clc1cncc(N2CCN(CCCOc3ccc4c(c3)CCC4)CC2)n1 [Example 3] | 
3 | 43 |  | Fc1ccc(C(c2ccc(F)cc2)N2CCN(CCCOc3ccc4c(c3)CCC4)CC2)cc1 [Example 2, 1-[4-[3-[(2,3-Dihydro-1H-indan-5-yl)oxy]propyl]-1-piperazinyl]bis(4-fluorophenyl)methane] | 
4 |  |  | O=C1CC2(CCCC2)CC(=O)N1CCCCN1CCN(c2ncccn2)CC1 [buspirone] | potent affinity
5 | 76 | 100 | c1ccc2c(c1)OCC(CNCCOc1ccc3c(c1)CCC3)O2 (stereo not drawn) [Example 5, N-[2-[(2,3-Dihydro-1H-indan-5-yl)oxy]ethyl]-2,3-dihydro-1,4-benzodioxan-2-methanamine] | 
6 | 99 | 95 | c1ccc2c(c1)OCC(CNCCCOc1ccc3c(c1)CCC3)O2 (stereo not drawn) [Example 6, N-[3-[(2,3-Dihydro-1H-indan-5-yl)oxy]propyl]-2,3-dihydro-1,4-benzodioxan-2-methanamine] | 
7 | 91 | 85 | c1cnc(N2CCN(CCCOc3ccc4c(c3)CCC4)CC2)nc1 [Example 1] | 
